Source: US20250179016A1, “AMORPHOUS MELANOCORTIN-4 RECEPTOR AGONIST” (LG CHEM, LTD., priority 2020, published 2025)

Columns and labels:
[1] = Stability assessment: storage of the solid sample, then HPLC analysis; assay type: physicochemical; conditions: in % (unit assumed)
[2] = as above; assay type: physicochemical; conditions: in % (unit assumed); for Stability result (HPLC analysis), Open ACC: open state, accelerated condition (40° C., 75% RH); for Stability result (HPLC analysis), Closed STR: sealed state, harsh condition, oven at 80° C.
Procedure: About 10-30 mg of the sample was stored for 4 weeks in an open state under the accelerated condition (40° C., 75% RH) or in a sealed state under the harsh condition in an oven at 80° C.

- Stability result (HPLC analysis), Closed RT ([1]; Week 2, stored at room temperature): 97.86
- Stability result (HPLC analysis), Closed RT ([1]; Week 4, stored at room temperature): 97.27
- Stability result (HPLC analysis), Open ACC ([2]; Day 3): 97.95
- Stability result (HPLC analysis), Closed STR ([2]; Day 3): 97.94
- Stability result (HPLC analysis) ([2]; Initial): 97.94
- Stability result (HPLC analysis), Open ACC ([2]; Week 1): 98.04
- Stability result (HPLC analysis), Closed STR ([2]; Week 1): 97.83
- Stability result (HPLC analysis), Open ACC ([2]; Week 2): 98.04
- Stability result (HPLC analysis), Closed STR ([2]; Week 2): 97.88
- Stability result (HPLC analysis), Open ACC ([2]; Week 4): 97.68
- Stability result (HPLC analysis), Closed STR ([2]; Week 4): 97.10
SMILES: CC(C)C(=O)N([C@H]1C[C@@H](C(=O)N2CCOCC2)N(C(=O)[C@@H]2CN(C(C)(C)C)C[C@H]2c2ccc(Cl)cc2)C1)[C@H]1CC[C@@H](C)CC1.Cl [Example 1, N-((3S,5S)-1-((3S,4R)-1-(tert-butyl)-4-(4-chlorophenyl)pyrrolidine-3-carbonyl)-5-(morpholine-4-carbonyl)pyrrolidin-3-yl)-N-((1s,4R)-4-methylcyclohexyl)isobutyramide hydrochloride]
